Measurements taken from patent US11851436B2, “Fused bicyclic pyrimidine derivatives and uses thereof” (The Regents of the University of Colorado, A Body Corporate, priority 2021, dated 2023).

Assays:
[1] = molecular target: recombinant RSK2 kinase (Homo sapiens (Human), UniProt P51812); test: LANCE Eu TR-FRET recombinant RSK2 kinase inhibition assay; format: biochemical; details: for IC50: recombinant RSK2, 3 μM ATP, mean ± S.D. (n=3)
Protocol: All reagents were prepared in kinase buffer containing 2 mM DTT, 50 mM HEPES, 1 mM EGTA, 10 mM MgCl2, 0.01% Tween 20, pH 7.5. […] RSK2 was used at a final concentration of […]. […] Assays were performed at 25° C. in a reaction mixture consisting of 2 μL serially diluted inhibitor solution, 4 μL kinase, 2 μL substrate, and 2 μL ATP. Reagents were incubated at room temperature for 1 h before the reaction was stopped through the addition of 5 μL of EDTA at a final concentration of 10 mM.
The exemplary compounds were evaluated for their effect on RSK2 activity in the recombinant TR-FRET kinase inhibition assay and their half-maximal inhibitory potency values (IC50) were calculated using nonlinear regression analysis of the log dose-response.

[2] = test system: MOLM-13 cells; test: MTS cellular viability assay in MOLM-13 cells; format: cell-based; details: Homo sapiens, 72 hr, 60 μM to 250 nM, n=3, ±S.D.
Protocol: Cell Culture: MOLM-13 (DSMZ) cells were cultured in RPMI1640 (Gibco) supplemented with 10% FBS (Sigma Aldrich) and 1% penicillin/streptomycin solution (Cellgro) at 37° C. in an incubator humidifier with 95% air and 5% CO2. HEK293 cells (ATCC) were cultured in Dulbecco's Modified Eagle Medium (DMEM; Gibco) supplemented with 10% FBS (Sigma Aldrich) and 1% penicillin/streptomycin solution (Cellgro) at 37° C. in an incubator humidifier with 95% air and 5% CO2. HEK293 cells were allowed to adhere for 24 h prior to use in assays.
MTS Cellular Viability Assay: MOLM-13 cells were seeded into sterile 96-well plates (Corning) at 60,000 cells per well in 100 μL of media. Inhibitor solutions were administered in 50 μL over a concentration range from 60 μM to 247 nM and cells were incubated at 37° C. for 24 to 72 h. Following 3 h incubation with 30 μL CellTiter 96® Aqueous One Cell Proliferation Reagent (Promega), cell viability was measured by formazan concentration assessment through colorimetric analysis using a BioTek Synergy H1 Hybrid plate reader (Absorption=490).
Exemplary compounds were assessed in cell systems for effects on cell viability, as well as their ability to inhibit cellular RSK2 activity.

recombinant RSK2 kinase, sequence (P51812 whole entry): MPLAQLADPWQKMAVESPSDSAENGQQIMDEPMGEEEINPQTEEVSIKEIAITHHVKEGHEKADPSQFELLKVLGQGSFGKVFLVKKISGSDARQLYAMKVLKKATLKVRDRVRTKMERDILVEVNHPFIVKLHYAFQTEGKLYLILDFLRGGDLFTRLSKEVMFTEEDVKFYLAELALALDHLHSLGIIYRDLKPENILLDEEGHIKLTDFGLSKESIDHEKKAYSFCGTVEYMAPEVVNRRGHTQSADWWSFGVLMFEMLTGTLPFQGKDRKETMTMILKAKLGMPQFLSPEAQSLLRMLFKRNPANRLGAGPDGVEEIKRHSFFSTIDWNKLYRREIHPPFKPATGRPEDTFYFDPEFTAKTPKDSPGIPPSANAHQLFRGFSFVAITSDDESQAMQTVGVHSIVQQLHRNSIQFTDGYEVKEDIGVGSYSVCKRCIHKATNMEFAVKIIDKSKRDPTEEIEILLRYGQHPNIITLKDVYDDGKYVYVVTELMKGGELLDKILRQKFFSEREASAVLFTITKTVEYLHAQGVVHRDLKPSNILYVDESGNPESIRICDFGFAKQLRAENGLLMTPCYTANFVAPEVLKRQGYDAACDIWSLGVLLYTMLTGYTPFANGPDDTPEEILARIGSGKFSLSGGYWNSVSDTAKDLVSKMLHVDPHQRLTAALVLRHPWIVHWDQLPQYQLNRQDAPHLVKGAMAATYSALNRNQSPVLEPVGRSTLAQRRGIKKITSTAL

Row | SMILES | IC50 [1] [nM] | EC50 [2] [nM] | activity rank in the recombinant kinase assay ([1]; statement in pharmacophore modeling text)
1 | Oc1c(F)cc(Nc2ncc3ncn(-c4ccc(Oc5ccccc5)cc4)c3n2)cc1F [A1-7, 2,6-Difluoro-4-((9-(4-phenoxyphenyl)-9H-purin-2-yl)amino)phenol] | 148 ± 27 | – | –
2 | Oc1c(F)cc(Nc2ncc3ncn(-c4ccc(N5CCOCC5)cc4)c3n2)cc1F [A1-3, 2,6-Difluoro-4-((9-(4-morpholinophenyl)-9H-purin-2-yl)amino)phenol] | 24.6 ± 3 | – | –
3 | Oc1c(F)cc(Nc2ncc3ncn(-c4cccc(Oc5ccccc5)c4)c3n2)cc1F [A1-6, 2,6-Difluoro-4-((9-(3-phenoxyphenyl)-9H-purin-2-yl)amino)phenol] | 329 ± 37 | – | –
4 | COC(=O)CCCc1ccc(-n2cnc3cnc(Nc4cc(F)c(O)c(F)c4)nc32)cc1 [A1-13, Methyl 4-(4-(2-((3,5-difluoro-4-hydroxyphenyl)amino)-9H-purin-9-yl)phenyl)butanoate] | 17.8 ± 1 | 13900 ± 700 | most active molecule
5 | Oc1c(F)cc(Nc2ncc3ccn(-c4ccc(N5CCOCC5)cc4)c3n2)cc1F [A1-16, 2,6-Difluoro-4-((7-(4-morpholinophenyl)-7H-pyrrolo[2,3-d]pyrimidin-2-yl)amino)phenol] | 25.7 ± 2.4 | 230 ± 3 | –
6 | COC(=O)CCc1ccc(-n2cnc3cnc(Nc4cc(F)c(O)c(F)c4)nc32)cc1 [A1-12, Methyl 3-(4-(2-((3,5-difluoro-4-hydroxyphenyl)amino)-9H-purin-9-yl)phenyl)-propanoate] | 15.7 ± 4 | – | –
7 | CC(C)CCn1cnc2cnc(Nc3cc(F)c(O)c(F)c3)nc21 [A1-2, 2,6-Difluoro-4-((9-isopentyl-9H-purin-2-yl)amino)phenol] | 55.5 ± 5.6 | 970 ± 100 | –
8 | Oc1cccc(-n2cnc3cnc(Nc4cc(F)c(O)c(F)c4)nc32)c1 [A1-10, 2,6-Difluoro-4-((9-(3-hydroxyphenyl)-9H-purin-2-yl)amino)phenol] | 79.8 ± 4.6 | – | –
9 | Oc1c(F)cc(Nc2ncc3ncn(-c4ccc(CCN5CCOCC5)cc4)c3n2)cc1F [A1-4, 2,6-Difluoro-4-((9-(4-(2-morpholinoethyl)phenyl)-9H-purin-2-yl)amino)phenol] | 18.4 ± 4 | 1900 ± 70 | –
10 | CN1CCN(c2ccc(-n3ccc4cnc(Nc5cc(F)c(O)c(F)c5)nc43)cc2)CC1 [A1-17, 2,6-Difluoro-4-((7-(4-(4-methylpiperazin-1-yl)phenyl)-7H-pyrrolo[2,3-d]pyrimidin-2-yl)amino)phenol] | 34.7 ± 1.3 | 70 ± 3 | –
11 | Oc1ccc(-n2cnc3cnc(Nc4cc(F)c(O)c(F)c4)nc32)cc1 [A1-11, 2,6-Difluoro-4-((9-(4-hydroxyphenyl)-9H-purin-2-yl)amino)phenol] | 81.8 ± 0.7 | – | –
12 | CC(C)CCn1ccc2cnc(Nc3cc(F)c(O)c(F)c3)nc21 [A1-15, 2,6-Difluoro-4-((7-isopentyl-7H-pyrrolo[2,3-d]pyrimidin-2-yl)amino)phenol] | 95.8 ± 11 | 1300 ± 60 | –
